This is an account of results in patent US20160363584A1, “SYSTEMS AND METHODS FOR STUDYING INFLAMMATION-DRUG INTERACTIONS” (Hepregen Corporation, priority 2012, published 2016).

Like-named read-outs stand apart in the source and are kept apart here.

The test system of data set [1] is rat Kupffer-HepatoPac™ cultures. It is filed as cell-based. As to the method:
Cytotoxicity was assessed by evaluation of cellular ATP content while hepatocyte metabolic competence was assessed by urea production. Production of urea, a liver-specific function, was assayed in culture media using the Stanbio kit according to manufacturer's directions. The reaction is based on the acid catalyzed condensation of urea with diacetylmonoxime in the presence of thiosemicarbazide to yield a red purple chromogen that is read spectrophotometrically. The cellular ATP content was measured in cell lysates using the Cell Titer-Glo luminescent kit from Promega (Madison, Wis.).
HepatoPac™ co-cultures were first allowed to stabilize functionally in serum-supplemented media for a 7-day period. Species-matched Kupffer cells were added to human and rat HepatoPac™ at multiple ratios (to mimic both the normal and inflamed state of the liver). To mimic the physiological state, human and rate Kupffer cells were added at hepatocyte:Kupffer cell ratios of 1:0.1 and 1:0.2, respectively. To mimic the inflamed state human Kupffer cells (at a ratio of 1:0.4 hepatocytes:Kupffer cells) or rat Kupffer cells (at a ratio of 1:0.5 hepatocytes:Kupffer cells) were then added to the cultures. On day 8 of culture, the cultures were treated with increasing concentrations of either Trovafloxacin or Levofloxacin (0-400 μM) in serum-free media. 24 hrs later, the cultures were stimulated with 50 ng/mL LPS. […]

A further data set has as its system TNF-α. Put plainly: TNF-α secretion in TVX/LPS-treated rat cultures with pentoxifylline. The format is cell-based. To be noted: 5 mM pentoxifylline. How it is done: Cultures were treated with Trovafloxacin and 5 mM Pentoxifylline for 72 hours. After 24 hours of dosing, Kupffer cells were activated with 50 ng/ml of LPS.
In another data set the test system is mouse. To be noted: cited from earlier work; for Effect on TVX/LPS toxic response: in vivo mouse model, Shaw et al.
Data set [2] relates to HepatoPac™-Kupffer cell co-cultures. Put plainly: IL-6 secretion after cytokine exposure of HepatoPac-Kupffer cell co-cultures. The format is cell-based, human. To be noted: 2 or 4 day treatment.
Experimental: (§1) Cultures received 2 or 4 day treatment with IL-2, IL-1B, TNF-α, or IL-6 in serum-free media after which cytokine levels were assayed in their supernatants, Cyp3A4 activity was determined using the P450-Glo Assay (Promega), total ATP was measured (Promega Cell-Titer Glo) and RNA was extracted (Qiagen Rneasy).
Cultures were exposed to IL-2, IL-1B and TNF-α and secretion of IL-6 into the culture supernatant was measured.
The subject of data set [3] is Human HepatoMune™ co-cultures. Put plainly: cells. How it is done: Hepatocytes were seeded on micropatterned collagen plates on Day 0. On Day 1, 3T3 fibroblasts were added to the cultures. Human HepatoPac® co-cultures were allowed to stabilize functionally for 7 days in serum-supplemented medium. Human Kupffer cells (from unmatched donors) were seeded onto the hepatocyte cocultures on Day 7 of culture at a hepatocyte to Kupffer cell ratio of 10:4. […] Cell lysates from each treatment group were collected on days 11 and 14 of culture for assessment of drug-induced effects on cytotoxicity.

Data set [4] has as its system human Kupffer cell-treated HepatoPac™ model. The data set is described as follows: Chronic toxicity platform, nine day treatment, cellular ATP content. The format is cell-based. To be noted: for Toxicity in the presence of LPS-stimulated Kupffer cells: 50 ng/ml LPS; for Toxicity following nine days of compound dosing: all treatment conditions (HepatoPac or Kupffer cell-treated, +/- LPS). As to the method: Chronic toxicity of various compounds suspected to be immunoreactive was evaluated with the human Kupffer cell-treated HepatoPac™ model (hepatocyte:Kupffer cell ratio of 1:0.4). Following a nine day treatment, compound toxicity was assessed as a function of cellular ATP content. TVX was used as a positive control. […] On day 7, cryopreserved unmatched Kupffer cells were added to the cultures. The cultures were dosed with compounds on culture Day 8 (hereby referred to as Dosing Day 0). On Dosing Day 1, LPS was added to the culture media at a final concentration of 50 ng/ml. On Dosing Day 3, 10 μl of supernatant was removed from cultures for urea analysis and replaced with an additional dose of the test compound. Similarly, supernatant was collected and cultures were re-dosed on Dosing Days 5 and 7. On Dosing Day 9, supernatant was collected and the cellular ATP content of the cultures was assessed (Promega Cell Titer Glo). Urea secretion of hepatocytes was quantified for the time-points of Dosing Day […], 5, 7, and 9 (data not shown).

Data set [5] relates to human Kupffer-HepatoPac™ cultures. It is filed as cell-based. As to the method: Cryopreserved human hepatocytes, cryopreserved human Kupffer cells and 3T3 J2 mouse fibroblasts were used in the manufacturing of the co-culture platform. Cryopreserved hepatocyte vials were thawed in a 37° C. water bath for 90-120 seconds followed by dilution in 50 mL of pre-warmed percoll-based hepatocyte density sedimentation medium (p=1.06). The cell suspension was spun at 50×g for 5 minutes. The supernatant was discarded, cells were resuspended in hepatocyte culture media (HCM) (Hepregen Corporation, Medford, Mass.) and viability was assessed using trypan blue exclusion (typically 80-95%). Liver-derived non-parenchymal cells, as judged by their size (˜10 μm in diameter) and morphology (non-polygonal), were consistently found to be less than 1% in these preparations. […] Kupffer cells were gently rocked into suspension and evaluated for viability via Trypan Blue exclusion. […]
Cytotoxicity was assessed by evaluation of cellular ATP content while hepatocyte metabolic competence was assessed by urea production. […] The reaction is based on the acid catalyzed condensation of urea with diacetylmonoxime in the presence of thiosemicarbazide to yield a red purple chromogen that is read spectrophotometrically. The cellular ATP content was measured in cell lysates using the Cell Titer-Glo luminescent kit from Promega (Madison, Wis.). […]

Experimental for CYP3A4: as §1
Standard human HepatoPac™ and Kupffer cell-treated HepatoPac™ (hepatocyte:Kupffer cell ratio of 1:0.4) cultures were treated with the inflammatory cytokine IL-1B for 4 days. Sensitivity to IL-1B was measured as a function of Cyp3A4 activity repression. Following 4 days of IL-1B treatment, cytokines were removed and cultures were allowed to recover for 6 days.

For the compound `CC(=O)CCCCn1c(=O)c2c(ncn2C)n(C)c1=O` [pentoxifylline], the “Effect on TVX/LPS-induced HepatoPac toxicity” value in data set [1] (5 mM pentoxifylline, 72 hours, 50 ng/ml LPS after 24 hours) is “significantly decreased”. Besides, the “Effect on TNF-α secretion” value in the data set on TNF-α is recorded as “significantly decreased”. Further, in the data set on mouse, the “Effect on TVX/LPS toxic response” value was “toxicity abrogation”.
Regarding TNF-α, the “IL-6 secretion into the culture supernatant” value in data set [2] was “no effect”.
On to etanercept, for which, in the data set with mouse, the “Effect on TVX/LPS toxic response” value is “toxicity abrogation”.
As for `CN(C)CCCN1c2ccccc2Sc2ccc(Cl)cc21` [chlorpromazine], the IC50 in data set [3] (read-out: IC50 (concentration at which 50% of the cells are dead), absence of LPS) amounted to 29 µM; in data set [3] (read-out: IC50 (concentration at which 50% of the cells are dead), presence of 50 ng/ml LPS), 17 µM.
On to `O=C(O)Cc1ccccc1Nc1c(Cl)cccc1Cl` [diclofenac], for which the “LPS-mediated toxicity after 3-day treatment” value in data set [4] (3-day treatment (data not shown)) is “did not result in increased LPS-mediated toxicity”. Besides, the “Toxicity in the presence of LPS-stimulated Kupffer cells” value in data set [4] (9-day treatment) is reported as “increased toxicity”.
For the compound `C[C@H]1COc2c(N3CCN(C)CC3)c(F)cc3c(=O)c(C(=O)O)cn1c23` [levofloxacin], the “Toxicity (cellular ATP content)” value in data set [1] is on record as “not toxic”.
Consider `N[C@@H]1[C@H]2CN(c3nc4c(cc3F)c(=O)c(C(=O)O)cn4-c3ccc(F)cc3F)C[C@@H]12` [TVX, trovafloxacin], for which the “TVX toxicity on addition of TNF-α” value in data set [5] is listed as “potentiates TVX toxicity”. The “Toxicity in the presence of LPS-stimulated Kupffer cells” value in data set [4] (9-day treatment) is reported as “increased toxicity”. Besides, the “Toxicity following nine days of compound dosing” value in data set [4] is “toxicity in all treatment conditions was observed”. Moreover, in the data set on mouse (mouse, in vivo), the “Toxicity under LPS-induced inflammatory stress” value is “toxic”.
As to IL-6: cytokine, the Cyp3A4 activity result with CYP3A4 is recorded as “maintains repression”.
As to IL-1B: inflammatory cytokine, in data set [2], the “IL-6 secretion into the culture supernatant” value is recorded as “causes IL-6 release”. Further, in the data set with CYP3A4, the CYP3A4 expression entry is listed as “Repression of CYP3A4 expression”; the Cyp3A4 activity entry was “dose-dependent and Kupffer cell-enhanced repression”. Moreover, in the data set on CYP3A4 (human, 96 h), the “Time Cyp3A4 activity remained repressed after removal of IL-1B” value came out at 4 days.
On to `CC(=O)N1CCN(c2ccc(OCC3COC(Cn4ccnc4)(c4ccc(Cl)cc4Cl)O3)cc2)CC1` (stereo not drawn) [ketoconazole], for which, in data set [4] (9-day treatment), the “Difference in TC50 between treatment groups” value is given as “no significant difference”. In addition, the “Toxicity following nine days of compound dosing” value in data set [4] was “toxicity in all treatment conditions was observed”.
